Patent US20080262084A1, “Stable Emulsion Compositions for Intravenous Administration Having Preservatie Efficacy” (priority 2004, published 2008)

Key:
Swiss Albino Mice = experiment: Safety study with Monolaurin, daily intravenous administration for 7 days (Example XII); conditions: Monolaurin group versus EDTA group
Method: Compositions of Example IX, X and M were studied along with 5% Dextrose Injection as control.
The objective of this study was to access the safety of Monolaurin as such and in comparison with EDTA when administered into mice by an intravenous route.
Forty healthy Swiss albino mice weighing on an average 20-22 g were used in this study.
Toxicity was determined after administration of study materials.
Data was recorded as Mean +SD and median values for histopathological data.
Student's paired t-test was used to compare basal and final values of the parametric data within the same group and Student's unpaired t-test was used to compare values between two different groups. A ‘p’ value of <0.05 was considered as significant.
All experimental animals were observed daily for seven days for following parameters:
Each animal was weighed before the administration of study material and daily during the treatment period.

[1] = system: broad spectrum microbial growth; conditions: Edetate at concentrations of 0.0025% and below; cited from earlier work
rats = conditions: administered orally; cited from earlier work
[2] = cited from earlier work
[3] = system: Candida albicans ATCC 10231, Pseudomonas aeruginosa ATCC 9027, Escherichia coli ATCC 8739 and Staphylococcus aureus ATCC 6538; experiment: Preservative efficacy, overall result on the four standard U.S.P. organisms; type: cell-based; conditions: Monolaurin at 0.01% w/v in the emulsion, organisms tested
Method: The said aliquots were incubated at a temperature of 20-25° C. for fungal culture and 30 to 35° C. for bacterial culture as recommended under “Antimicrobial effectiveness testing” in United States Pharmacopeia, Chapter 51 (U.S.P. <51>).
(for fungal cultures) and 32° C.±2° C. (for bacterial cultures). The viable counts of the test organisms were determined after 24 hours and 48 hours.

Structure (SMILES): O=C([O-])CN(CCN(CC(=O)[O-])CC(=O)O)CC(=O)O.[Na+].[Na+] [EDTA, Disodium edetate, reference compound]
- Histopathological data (Swiss Albino Mice): compare well
- preventing a no more than 10 fold increase in broad spectrum microbial growth [1]: ineffective

Structure (SMILES): CCCCCCCCCCCC(=O)OCC(O)CO (stereo not shown) [Monolaurin]
- Histopathological data (Swiss Albino Mice): compare well
- LD50 (rats): about 53,000 mg/kg body weight
- solubility in aqueous media ([2]; aqueous media): insoluble
- solubility in fat solvents ([2]; chloroform, benzene, ethanol, or acetone): highly soluble
- effectiveness as preservative (preventing a growth of not more than 10 fold) [3]: effective as a preservative
